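Test compounds were applied to cells in 96-well plates for 48 hours at 5 doses. Abbreviation: GI50, concentration required for 50% inhibition of growth.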 Activity calls are given as the source filed them. Cut-off read from the data, not from the text of the source: active = GI50 up to about 1.1 µM and inactive = higher.
How the values were obtained:
Assay in all cases: NCI anticancer screen, dose series, 48 h
CCRF-CEM = system: CCRF-CEM
HCT-15 = system: HCT-15
HOP-62 = system: HOP-62
HT-29 = system: HT-29
K562 = system: K562
M14 = system: M14
MOLT-4 = system: MOLT-4
NCI-H460 = system: NCI-H460
OVCAR-3 = system: OVCAR-3
OVCAR-4 = system: OVCAR-4
SF-268 = system: SF-268
SK-MEL-28 = system: SK-MEL-28
SK-MEL-5 = system: SK-MEL-5
SK-OV-3 = system: SK-OV-3
SNB-75 = system: SNB-75
HOP-92 = system: HOP-92
UACC-62 = system: UACC-62
SR = system: SR

SMILES	GI50 (CCRF-CEM)	GI50 (HCT-15)	GI50 (HOP-62)	GI50 (HT-29)	GI50 (K562)	GI50 (M14)	GI50 (MOLT-4)	GI50 (NCI-H460)	GI50 (OVCAR-3)	GI50 (OVCAR-4)	GI50 (SF-268)	GI50 (SK-MEL-28)	GI50 (SK-MEL-5)	GI50 (SK-OV-3)	GI50 (SNB-75)	GI50 (HOP-92)	GI50 (UACC-62)	GI50 (SR)
CC(=O)Nc1ccc(-c2nnc(SCC(=O)Nc3ccc(Cl)cc3Cl)o2)cc1	25.4 µM (inactive)	38.5 µM	70 µM (inactive)	31.8 µM (inactive)	28.8 µM (inactive)	29.3 µM (inactive)	40.8 µM (inactive)	32.9 µM (inactive)	18.6 µM (inactive)	37.4 µM (inactive)	44.7 µM (inactive)	> 100 µM (inactive)	19.5 µM (inactive)	64.3 µM (inactive)	31.3 µM (inactive)	–	–	–
COC(OC)c1cc2c(cc1C(=O)[C@@]13CCC[C@@H]1NC(=O)O3)OCO2	> 100 µM (inactive)	–	> 100 µM (inactive)	> 100 µM (inactive)	> 100 µM (inactive)	> 100 µM (inactive)	> 100 µM (inactive)	> 100 µM (inactive)	> 100 µM (inactive)	> 100 µM (inactive)	> 100 µM (inactive)	> 100 µM (inactive)	41.2 µM (inactive)	> 100 µM (inactive)	49 µM (inactive)	> 100 µM (inactive)	34.1 µM (inactive)	–
Cn1nc2ccccc2cc1=O	> 100 µM (inactive)	> 100 µM	> 100 µM (inactive)	> 100 µM (inactive)	> 100 µM (inactive)	> 100 µM (inactive)	–	> 100 µM (inactive)	> 100 µM (inactive)	> 100 µM (inactive)	> 100 µM (inactive)	> 100 µM (inactive)	> 100 µM (inactive)	> 100 µM (inactive)	59.2 µM (inactive)	> 100 µM (inactive)	> 100 µM (inactive)	–
O=C(O)CC[C@H](NC(=O)c1ccc(-n2nc3ccc(=O)cc-3[nH]c2=O)cc1)C(=O)O	> 100 µM (inactive)	> 100 µM	> 100 µM (inactive)	> 100 µM (inactive)	> 100 µM (inactive)	> 100 µM (inactive)	> 100 µM (inactive)	> 100 µM (inactive)	> 100 µM (inactive)	> 100 µM (inactive)	> 100 µM (inactive)	> 100 µM (inactive)	> 100 µM (inactive)	–	–	> 100 µM (inactive)	> 100 µM (inactive)	> 100 µM (inactive)
O=C1C=C(Nc2ccccc2C(=O)CC(=O)C(=O)Nc2cccc([N+](=O)[O-])c2)c2ccccc2C1=O	3.3 µM (inactive)	23.8 µM	> 100 µM (inactive)	> 100 µM (inactive)	17.7 µM (inactive)	41.5 µM (inactive)	4.28 µM (inactive)	93.3 µM (inactive)	14.2 µM (inactive)	26.9 µM (inactive)	22.2 µM (inactive)	46 µM (inactive)	12.9 µM (inactive)	> 100 µM (inactive)	64.7 µM (inactive)	37.1 µM (inactive)	26.6 µM (inactive)	–
CCOc1ccc(NC(=O)CC2Sc3ccccc3NC2=O)cc1 (stereo not drawn)	> 100 µM (inactive)	56.8 µM	44.9 µM (inactive)	85.5 µM (inactive)	65.2 µM (inactive)	> 100 µM (inactive)	> 100 µM (inactive)	90.2 µM (inactive)	42.3 µM (inactive)	18.4 µM (inactive)	53 µM (inactive)	> 100 µM (inactive)	> 100 µM (inactive)	41.3 µM (inactive)	31.6 µM (inactive)	–	> 100 µM (inactive)	–
COC(=O)N/N=C(\C)CC(=O)Nc1ccc(Cl)cc1	> 100 µM (inactive)	–	> 100 µM (inactive)	> 100 µM (inactive)	> 100 µM (inactive)	> 100 µM (inactive)	> 100 µM (inactive)	> 100 µM (inactive)	> 100 µM (inactive)	–	> 100 µM (inactive)	> 100 µM (inactive)	> 100 µM (inactive)	> 100 µM (inactive)	98.6 µM (inactive)	> 100 µM (inactive)	> 100 µM (inactive)	–
Cc1nc(C(N)=S)sc1C(=O)/C=C/c1cccc(O)c1	28.4 µM (inactive)	> 100 µM	> 100 µM (inactive)	> 100 µM (inactive)	29.9 µM (inactive)	–	21.9 µM (inactive)	> 100 µM (inactive)	> 100 µM (inactive)	–	87.3 µM (inactive)	> 100 µM (inactive)	> 100 µM (inactive)	> 100 µM (inactive)	59.6 µM (inactive)	60.4 µM (inactive)	> 100 µM (inactive)	–
OC12CC/C(=N/OCc3ccccc3)CC1c1ccccc12 (stereo not drawn)	> 100 µM (inactive)	> 100 µM	> 100 µM (inactive)	> 100 µM (inactive)	> 100 µM (inactive)	> 100 µM (inactive)	> 100 µM (inactive)	> 100 µM (inactive)	> 100 µM (inactive)	> 100 µM (inactive)	> 100 µM (inactive)	> 100 µM (inactive)	> 100 µM (inactive)	> 100 µM (inactive)	39.7 µM (inactive)	–	> 100 µM (inactive)	–
CCOC(=O)c1cc(/C=C/C(C)=C/C(=O)OC)oc1-c1ccccc1	48.9 µM (inactive)	58.9 µM	–	> 100 µM (inactive)	33.8 µM (inactive)	> 100 µM (inactive)	38.6 µM (inactive)	65.3 µM (inactive)	73.5 µM (inactive)	63.5 µM (inactive)	40.8 µM (inactive)	–	> 100 µM (inactive)	> 100 µM (inactive)	–	–	41.3 µM (inactive)	–
CCn1c2ccccc2c(=O)c2c(OC)ccc(OC)c21	48 µM (inactive)	45.9 µM	54.3 µM (inactive)	64.3 µM (inactive)	37.2 µM (inactive)	79.8 µM (inactive)	42.5 µM (inactive)	47.6 µM (inactive)	34 µM (inactive)	31.3 µM (inactive)	83.9 µM (inactive)	–	–	64.9 µM (inactive)	–	39 µM (inactive)	43.6 µM (inactive)	34.9 µM (inactive)
COC(=O)/C(=C/CC(N=C(c1ccccc1)c1ccccc1)C(=O)OC)N=C(c1ccccc1)c1ccccc1 (stereo not drawn)	> 100 µM (inactive)	> 100 µM	> 100 µM (inactive)	> 100 µM (inactive)	> 100 µM (inactive)	> 100 µM (inactive)	> 100 µM (inactive)	> 100 µM (inactive)	> 100 µM (inactive)	> 100 µM (inactive)	> 100 µM (inactive)	> 100 µM (inactive)	> 100 µM (inactive)	39 µM (inactive)	12.4 µM (inactive)	–	> 100 µM (inactive)	> 100 µM (inactive)
CN(C)C(=Nc1nc(N(C)C)s[s+]1)N(C)C	> 100 µM (inactive)	> 100 µM	> 100 µM (inactive)	> 100 µM (inactive)	> 100 µM (inactive)	> 100 µM (inactive)	> 100 µM (inactive)	> 100 µM (inactive)	–	> 100 µM (inactive)	> 100 µM (inactive)	> 100 µM (inactive)	> 100 µM (inactive)	> 100 µM (inactive)	> 100 µM (inactive)	> 100 µM (inactive)	> 100 µM (inactive)	–

Reference: ChEMBL document CHEMBL1201862, “PubChem BioAssay data set” (2004)
